This experiment deals with T1, MEK1 (Homo sapiens, UniProt Q02750).
T1 construct: purchased Millipore 14-420 (GST-MEK1); 14-703 (Cot1); host or cells: Cot1: insect cells (SF21)
Put plainly: MEK1 activation kinase assay (Assay 2, HTRF; Cot1 phosphorylates GST-MEK1). The experiment is classed as biochemical. How it is done:
MEK1 Activation Kinase Assay
The kinase Cot1 activates MEK1 by phosphorylating its activation loop. The inhibitory activity of compounds of the present invention on this activation of MEK1 was quantified employing the HTRF assay described in the following paragraphs.
As substrate for the kinase reaction the unactive C-terminally His6-tagged GST-MEK1 fusion protein (Millipore cat. no 14-420) was used.
Then the kinase reaction was started by the addition of 2 μl of a solution of Cot1 in assay buffer and the resulting mixture was incubated for a reaction time of 20 min at 22° C. The concentration of Cot1 in the assay was adjusted depending of the activity of the enzyme lot and was chosen appropriate to have the assay in the linear range, typical enzyme concentrations were in the range of about 2 ng/μl (final conc. in the 5 μl assay volume).
The resulting mixture was incubated 2 h at 22° C. to allow the binding of the phosphorylated GST-MEK1 to the anti-GST-XL665 and the Eu-cryptate labelled anti-phospho-MEK 1/2 antibody. Subsequently the amount of Ser217/Ser221-phosphorylated substrate was evaluated by measurement of the resonance energy transfer from the Eu-Cryptate-labelled anti-phospho-MEK antibody to the anti-GST-XL665.

Where [1] appears, read: mean values from 2 or more measurements, read-out: Assay 2 IC50 values (nanomolar) (MEK1 activation kinase assay) (values are mean values from 2 or more measurements).
Setting [2] is: representative example compounds, read-out: IC50 in MEK1 activation kinase assay.

SMILES strings stand for the structures. Like-named read-outs stand apart in the source and are kept apart here.

One may read the IC50 as the concentration needed to halve the response being measured.

T1 sequence (Q02750 whole entry): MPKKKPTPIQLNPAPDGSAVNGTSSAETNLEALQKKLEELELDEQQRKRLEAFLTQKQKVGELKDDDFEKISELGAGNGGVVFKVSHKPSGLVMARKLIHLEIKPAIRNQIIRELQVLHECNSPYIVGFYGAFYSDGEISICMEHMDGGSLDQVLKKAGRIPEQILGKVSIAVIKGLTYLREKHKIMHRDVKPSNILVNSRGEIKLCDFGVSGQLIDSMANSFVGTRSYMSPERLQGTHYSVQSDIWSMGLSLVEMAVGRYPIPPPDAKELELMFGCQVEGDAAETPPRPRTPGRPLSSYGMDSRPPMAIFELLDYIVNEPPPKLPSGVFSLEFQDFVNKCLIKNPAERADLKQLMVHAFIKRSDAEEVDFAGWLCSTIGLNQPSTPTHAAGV

In the case of `CC(C)(O)C(O)CCOc1cc(F)cc(Nc2ccc(I)cc2F)c1C(N)=O` (single isomer, unassigned) [Example 6.3, 2-(3,4-Dihydroxy-4-methyl-pentyloxy)-4-fluoro-6-(2-fluoro-4-iodo-phenylamino)-benzamide], the IC50 under setting [1] came to 30.6 nM.

With `CC(C)(O)C(O)CCOc1cc(F)cc(Nc2ccc(I)cc2F)c1C(N)=O` (single isomer, unassigned) [Example 6.4, 2-(3,4-Dihydroxy-4-methyl-pentyloxy)-4-fluoro-6-(2-fluoro-4-iodo-phenylamino)-benzamide], the half-inhibitory concentration (IC50) under setting [1] amounted to 29.5 nM.

As for `CC(O)(CO)CCOc1cc(F)cc(Nc2ccc(I)cc2F)c1C(N)=O` (single isomer, unassigned) [Example 6.5, 2-(3,4-Dihydroxy-3-methyl-butoxy)-4-fluoro-6-(2-fluoro-4-iodo-phenylamino)-benzamide], the 50% inhibitory concentration (IC50) under setting [1] came out at 172 nM.

Turning to `CC(O)(CO)CCOc1cc(F)cc(Nc2ccc(I)cc2F)c1C(N)=O` (single isomer, unassigned) [Example 6.6, 2-(3,4-Dihydroxy-3-methyl-butoxy)-4-fluoro-6-(2-fluoro-4-iodo-phenylamino)-benzamide], the IC50 under setting [1] is 80.3 nM.

Turning to `CN(C)S(=O)(=O)Nc1cccc(Oc2cc(F)cc(Nc3ccc(I)cc3F)c2C(N)=O)c1` [Example 2.1, 2-[3-[[(dimethylamino)sulfonyl]amino]phenoxy]-4-fluoro-6-[(2-fluoro-4-iodophenyl)amino]-benzamide], the half-inhibitory concentration (IC50) under setting [1] is 21.8 nM.

Regarding `CN(C)S(=O)(=O)Nc1cccc(Oc2cc(F)cc(Nc3ccc(I)cc3)c2C(N)=O)c1` [Example 2.16, 2-{3-[(dimethylsulfamoyl)amino]phenoxy}-4-fluoro-6-[(4-iodophenyl)amino] benzamide], the IC50 by setting is: under setting [1], 47.3 nM; under setting [2], below 1000 nM.

Consider `Cc1cc(I)ccc1Nc1cc(F)cc(Oc2cccc(NS(=O)(=O)N(C)C)c2)c1C(N)=O` [Example 2.17, 2-{3-[(dimethylsulfamoyl)amino]phenoxy}-4-fluoro-6-[(4-iodo-2-methylphenyl)amino] benzamide], for which the IC50 is 39.8 nM under setting [1] and below 1000 nM under setting [2].

For `CC(C)(C)OC(=O)Nc1cccc(Oc2c(F)c(F)c(F)c(Nc3ccc(I)cc3F)c2C(N)=O)c1` [Example 2.19, {3-[2-Carbamoyl-4,5,6-trifluoro-3-(2-fluoro-4-iodo-phenylamino)-phenoxy]-phenyl}-carbamic acid tert-butyl ester], the concentration for half-maximal inhibition (IC50) under setting [1] came to 152 nM and the half-inhibitory concentration (IC50) under setting [2] was below 1000 nM.

Regarding `CN(C)S(=O)(=O)Nc1cccc(Oc2c(F)c(F)c(F)c(Nc3ccc(I)cc3F)c2C(N)=O)c1` [Example 2.20, 2-{3-[(dimethylsulfamoyl)amino]phenoxy}-3,4,5-trifluoro-6-[(2-fluoro-4-iodophenyl)amino]-benzamide], the IC50 is 16.5 nM under setting [1] and below 1000 nM under setting [2].

Turning to `CC(=O)Nc1ccc(Oc2cc(F)cc(Nc3ccc(I)cc3F)c2C(N)=O)cc1` [Example 4.5, 2-(4-Acetylamino-phenoxy)-4-fluoro-6-(2-fluoro-4-iodo-phenylamino)-benzamide], the 50% inhibitory concentration (IC50) under setting [2] was below 1000 nM.

For `CNC(=O)c1c(Nc2ccc(I)cc2F)cc(F)cc1Oc1cccc(NS(=O)(=O)N(C)C)c1` [Example 4.17, 2-[3-[[(dimethylamino)sulfonyl]amino]phenoxy]--4-fluoro-6-[(2-fluoro-4-iodophenyl)amino]-N-methyl-benzamide], under setting [1], the IC50 was found to be 61.3 nM.

Take `CN(C)S(=O)(=O)Nc1cccc(Oc2cc(F)cc(Nc3ccc(I)cc3F)c2C(=O)NCCO)c1` [Example 4.18, 2-[3-[[(dimethylamino)sulfonyl]amino]phenoxy]--4-fluoro-6-[(2-fluoro-4-iodophenyl)amino]-N-(2-hydroxy-ethyl)-benzamide]: the concentration for half-maximal inhibition (IC50) under setting [1] worked out at 69.9 nM.

Regarding `CN(C)S(=O)(=O)Nc1cccc(Oc2cc(F)cc(Nc3ccc(I)cc3F)c2C(=O)NCCCO)c1` [Example 4.19], the IC50 under setting [1] turned out to be 80.1 nM.

As for `C[C@H](CO)NC(=O)c1c(Nc2ccc(I)cc2F)cc(F)cc1Oc1cccc(NS(=O)(=O)N(C)C)c1` [Example 4.20, 2-[3-[[(dimethylamino)sulfonyl]amino]phenoxy]--4-fluoro-6-[(2-fluoro-4-iodophenyl)amino]-N-((R)-2-hydroxy-1-methyl-ethyl)-benzamide], the half-inhibitory concentration (IC50) under setting [1] worked out at 89.3 nM.

For the compound `C[C@@H](CO)NC(=O)c1c(Nc2ccc(I)cc2F)cc(F)cc1Oc1cccc(NS(=O)(=O)N(C)C)c1` [Example 4.21, 2-[3-[[(dimethylamino)sulfonyl]amino]phenoxy]--4-fluoro-6-[(2-fluoro-4-iodophenyl)amino]-N-((S)-2-hydroxy-1-methyl-ethyl)-benzamide], the IC50 under setting [1] turned out to be 248 nM.

`C[C@@H](O)CNC(=O)c1c(Nc2ccc(I)cc2F)cc(F)cc1Oc1cccc(NS(=O)(=O)N(C)C)c1` [Example 4.22, 2-[3-[[(dimethylamino)sulfonyl]amino]phenoxy]--4-fluoro-6-[(2-fluoro-4-iodophenyl)amino]-N-((R)-2-hydroxy-propyl)-benzamide]: under setting [1], the IC50 is 163 nM.

Consider `C[C@H](O)CNC(=O)c1c(Nc2ccc(I)cc2F)cc(F)cc1Oc1cccc(NS(=O)(=O)N(C)C)c1` [Example 4.23, 2-[3-[[(dimethylamino)sulfonyl]amino]phenoxy]--4-fluoro-6-[(2-fluoro-4-iodophenyl)amino]-N-((S)-2-hydroxy-propyl)-benzamide], for which the IC50 under setting [1] amounted to 132 nM.

Regarding `CN1CCC[C@H]1COc1cc(F)cc(Nc2ccc(I)cc2F)c1C(N)=O` [Example 4.25, 4-Fluoro-2-(2-fluoro-4-iodo-phenylamino)-6-((S)-1-methyl-pyrrolidin-2-ylmethoxy)-benzamide], the IC50 is 182 nM under setting [1] and below 1000 nM under setting [2].

For `Cn1cc(Oc2cc(F)cc(Nc3ccc(I)cc3F)c2C(N)=O)cn1` [Example 4.27, 4-Fluoro-2-(2-fluoro-4-iodo-phenylamino)-6-(1-methyl-1H-pyrazol-4-yloxy)-benzamide], the IC50 was 258 nM under setting [1] and below 1000 nM under setting [2].

As to `NC(=O)c1c(Nc2ccc(I)cc2F)cc(F)cc1Oc1cccc(CS(N)(=O)=O)c1` [Example 4.33, 4-Fluoro-2-(2-fluoro-4-iodo-phenylamino)-6-(3-sulfamoylmethyl-phenoxy)-benzamide], the half-maximal inhibitory concentration (IC50) reads like this: under setting [1], 31.5 nM; under setting [2], below 1000 nM.

Regarding `CS(=O)(=O)Cc1cccc(Oc2cc(F)cc(Nc3ccc(I)cc3F)c2C(N)=O)c1` [Example 4.34, 4-Fluoro-2-(2-fluoro-4-iodo-phenylamino)-6-(3-methane-sulfonylmethyl-phenoxy)-benzamide], the IC50 under setting [1] stood at 23.5 nM and the half-maximal inhibitory concentration (IC50) under setting [2] was below 1000 nM.

For the compound `NC(=O)c1cccc(Oc2cc(F)cc(Nc3ccc(I)cc3F)c2C(N)=O)c1` [Example 4.37, 2-(3-Carbamoyl-phenoxy)-4-fluoro-6-(2-fluoro-4-iodo-phenylamino)-benzamide], the 50% inhibitory concentration (IC50) reads like this: under setting [1], 26.6 nM; under setting [2], below 1000 nM.

For the compound `CCCNS(=O)(=O)Nc1cccc(Oc2cc(F)cc(Nc3ccc(I)cc3F)c2C(N)=O)c1` [Example 5.2, 2-[3-[[(propylamino)sulfonyl]amino]phenoxy]-4-fluoro-6-[(2-fluoro-4-iodophenyl)amino]-benzamide], under setting [1], the concentration for half-maximal inhibition (IC50) worked out at 24 nM.

Consider `CC(=O)Nc1cccc(Oc2cc(F)cc(Nc3ccc(I)cc3F)c2C(N)=O)c1` [Example 5.3, 2-(3-Acetylamino-phenoxy)-4-fluoro-6-(2-fluoro-4-iodo-phenylamino)-benzamide], for which the IC50 was 28.1 nM under setting [1] and below 1000 nM under setting [2].

The values above are taken from patent publication US20110039819A1, “SUBSTITUTED PHENOXYBENZAMIDES” (priority 2008, published 2011).
